How the values were obtained:
Y-1 tumor cell line = assay: ACTH stimulation of steroidogenesis in the Y-1 tumor cell line; assay type: cell-based; conditions: unpublished studies
HL-60 cells [1] = assay: [3-3H]sphinganine uptake and metabolism by HL-60 cells; assay type: in vitro ADME, human
Procedure: Approximately 1×10^6 HL-60 cells in 1 ml of medium were mixed with an equal volume of medium containing 2.5 μm [3-^3 H]sphinganine (equimolar with BSA). After varying time intervals, an aliquot of the cells was removed and counted and a portion was extracted as described below. The extracts were applied to Silica gel H plates and developed in CHCl3 :methanol: 2N NH4 OH (40:10:1, v/v/v), air dried, sprayed with Amplify (Amersham), and subjected to fluorography.

[2] = system: phorbol ester binding site (protein kinase C) of neutrophils; assay: Cellular [3H]-phorbol dibutyrate binding in neutrophils; parameters: species or system human; conditions: 50 μM; 15 min
Procedure: Neutrophils (1×10^8 cells/ml) were preincubated with the indicated concentration of sphinganine, palmitic acid, or ceramide for five minutes prior to the addition of 50 nM (final concentration) of [^3 H]-phorbol dibutyrate (specific activity of 8.3 Ci/mMole). The cells were incubated an additional 15 min. in a shaking waterbath at 37° C. The incubation mixtures were filtered using an Amicon filtration manifold model VFM-III and washed 5 times with 5 mls of ice-cold PBS-glucose. The filters were counted using a Beckman LS7000 scintillation counter.

human neutrophils [3] = assay: Phagocytosis of opsonized latex particles by neutrophils; assay type: cell-based; conditions: 40 μM sphinganine, ± S.E.M.
Procedure: Latex particles were opsonized by incubating at 37° C. 1 ml of particles with 0.2 ml of human serum plus 1 ml Tris buffer, pH 8.5. […] The reaction was terminated by the addition of 0.4 ml of ice-cold buffer containing 1 mM EDTA. […] Cells are sedimented, while excess beads remain at the ficoll-saline interface. The number of latex beads internalized per cell was determined by microscopic examination.

HL-60 cells [4] = assay: Morphology and marker enzymes (ANA esterase, acid phosphatase) of HL-60 cells on day 3; assay type: cell-based, human; conditions: 3 days
Source text: Expression of most other signs of HL-60 cell differentiation requires longer time periods after treatment with PMA. For these experiments, the cells were examined on day 3 for adherence and acid phosphatase activity (Table IV) and morphology and the marker enzymes alpha-naptholacetate (ANA) esterase and acid phosphatase (Table V).

human neutrophils [5] = assay: Cytoplasmic calcium concentration (Quin2); assay type: cell-based; conditions: Sphinganine (30 μM) pretreatment
Procedure: Intracellular calcium was measured by the Quin2 method. Briefly, Quin2/acetoxymethylester (50 μM) was preincubated with 1×10^8cell/ml for 20 min. at 37°, prior to 10-fold dilution and continuation of incubation for an additional 40-60 minutes. Cells were reisolated by centrifugation to remove extracellular fluorophore, and fluorescence measurement and calibration were carried out as described by Tsien et al in J. Cell. Biol. 94, 325-334, 1982, using a Perkin-Elmer MPF-44B fluorescence spectrophotometer. Buffer consisted of 140 mM NaCl, 5 mM KCl, 1 mM Na2 PO4, 5.5 mM glucose, 0.5 mM MgSO4, 20 mM Hepes, and 1 mM CaCl2.

human neutrophils [6] = assay: Superoxide production by neutrophils (cytochrome c reduction); assay type: cell-based; conditions: Neutrophil, approximately 5×10^5 cells/ml, all activators, read-out: concentration for 50% inhibition of superoxide production
Procedure: Superoxide production by cells was quantitated from superoxide-mediated reduction of cytochrome c, monitored as an increase in absorbance at 550 nm and an extinction coefficient at 21,000 M^-1 cm^-1. Measurements were carried out at 37° C. using approximately 5×10^5 neutrophils per ml, stirred continuously. The cells were allowed to equilibrate several minutes prior to the addition of effectors. Conditions for individual experiments are described in figure legends and tables. Controls utilizing added superoxide dismutase verified that the cytochrome c reduction was mediated by superoxide.

human neutrophils [7] = assay: [32P]-phosphate incorporation into TCA-precipitable material of neutrophils; assay type: cell-based
Procedure: Neutrophils (1.4×10^8 cells) were preincubated in with 0.5 mCi Na2 H^32 PO4 in buffer containing […] NaCl, 5.56 mM glucose, 10 mM Hepes, and 0.33 mM CaCl2 for a total of 1 hr at 37° C. in a shaking waterbath. Excess unbound counts were removed by centrifugation and resuspension, repeated five times. The cells were then divided into 4 treatment groups (see RESULTS below) containing approximately 3.5×10^7 cells each. All groups were incubated at 37° C. in a shaking waterbath for the same total time. Some samples were incubated 10 min. with sphinganine (40 μM) prior to addition of 1 μM PMA (final concentration), with which they were incubated for an additional 15 min. The reaction was stopped by addition of an equal volume of boiling SDS dissociation buffer (9% SDS, 1% mercaptoethanol, 15% glycerol, 30 mM Tris, pH 7.8). The samples were run on a 12% SDS-polyacrylamide gel using the method of Rudolph and Krueger (Adv. Cyclic Nucleotide Res. 101, 107-133, 1979). The gels were dried using a Bio-Rad model 2400 Gel Slab Dryer. Autoradiography was performed on the dried gels using Kodak X-omat X-ray film and Dupont Cronex intensifying screens. The gels were exposed for 12 hrs at -70° C.
Alternatively, neutrophils were preincubated as described above using 0.1 mCi of ^32 P labeled phosphate. The cells were broken by 5 min. of sonication using an Ultramet III waterbath sonicator, and 5% (final concentration) trichloroacetic acid was added to each sample. […] The precipitate was filtered and washed extensively using an Amicon filtration system and counted using a Beckman LS7000 scintillation counter.

human platelets = assay: [3H]PDBu binding to human platelets
Procedure: Human platelets, prepared as described above, were suspended at a concentration of 2.5×10^8 platelet/ml. 50 μl of the platelets were then incubated for five minutes with the indicated concentration of sphingosine in Eppendorf microfuge tubes. Sphingosine was prepared in 50% ethanol at a concentration 100-fold the final concentration so that ethanol was kept at 0.5%. [^3 H]PDBu was added to 10 nM and incubated with the platelets at 37° for 10 minutes. The samples were then filtered on Whatman GF/C filters pre-washed with 5 ml of modified Tyrode's buffer containing 0.1% bovine serum albumin, washed with 10 ml of the same buffer, dried, and counted in 10 ml of Aquasol II in an LKB beta counter. Non-specific binding was determined in the presence of 1 μM unlabelled PDBu and subtracted from the total counts to yield the specific binding.

SMILES: CCCCCCCCCCCCCCC[C@@H](O)[C@@H](N)CO (relative stereo) [Sphinganine, erythro-dihydrosphingosine]
- effect on the ACTH-stimulated steroidogenic rate (Y-1 tumor cell line): did not affect
- time in which approximately half of the sphinganine was taken up from the medium by the cells (HL-60 cells [1]; [3H]sphinganine, HL-60 cells, 37°): ≤ 6 h
- free [3H]sphinganine associated with the cells (HL-60 cells [1]; day 2): 0.07 nmol
- free [3H]sphinganine associated with the cells (HL-60 cells [1]; day 3): 0.06 nmol
- displacement of [3H]-phorbol dibutyrate [2]: 60%
- ingested latex beads per cell (human neutrophils [3]): 7.2±0.8 beads/cell
- Acid phosphatase (HL-60 cells [4]; 8 nM PMA, adherent cells, 1 μM sphinganine): 0.64 nmol/h/105 cells
- Acid phosphatase (HL-60 cells [4]; 8 nM PMA, adherent cells, 2.5 μM sphinganine): 0.60 nmol/h/105 cells
- Acid phosphatase (HL-60 cells [4]; 8 nM PMA, adherent cells, 5 μM sphinganine): 0.64 nmol/h/105 cells
- Acid phosphatase (HL-60 cells [4]; 8 nM PMA, suspended cells, 1 μM sphinganine): 0.19 nmol/h/105 cells
- Acid phosphatase (HL-60 cells [4]; 8 nM PMA, suspended cells, 2.5 μM sphinganine): 0.12 nmol/h/105 cells
- Acid phosphatase (HL-60 cells [4]; 8 nM PMA, suspended cells, 5 μM sphinganine): 0.06 nmol/h/105 cells
- Acid phosphatase (HL-60 cells [4]; No PMA, suspended cells, 1 μM sphinganine): 0.25 nmol/h/105 cells
- Acid phosphatase (HL-60 cells [4]; No PMA, suspended cells, 2.5 μM sphinganine): 0.22 nmol/h/105 cells
- Acid phosphatase (HL-60 cells [4]; No PMA, suspended cells, 5 μM sphinganine): 0.16 nmol/h/105 cells
- Calcium, Resting (human neutrophils [5]): 0.20 ± 0.02 µM
- Calcium, FMLP-Peak (human neutrophils [5]; 1 μM FMLP): 0.66 ± 0.14 µM
- IC50 (human neutrophils [6]): ~1000 nM
- [32P]-phosphate incorporation into TCA-precipitable material (human neutrophils [7]; PMA (1 μM) plus Sa (25 μM)): 2845 COUNTS PER MINUTE
- [32P]-phosphate incorporation into TCA-precipitable material (human neutrophils [7]; Sa (25 μM)): 2506 COUNTS PER MINUTE

SMILES: CCCCCCCCCCCCC/C=C/[C@@H](O)[C@@H](N)CO [sphingosine]
- inhibition of [3H]PDBu binding to whole human platelets (human platelets): able to inhibit this binding

From patent publication US4937232A, “Inhibition of protein kinase C by long-chain bases” (priority 1988, dated 1990)
